Data as given in ChEMBL document CHEMBL2380224, “Fragment-based ligand design of novel potent inhibitors of tankyrases” (J Med Chem, 2013).

Tests used:
[1] = target: Protein mono-ADP-ribosyltransferase PARP6 (Homo sapiens, UniProt Q2NL67); assay: Inhibition of PARP6 (unknown origin)
[2] = target: T1, Protein mono-ADP-ribosyltransferase PARP3 (Homo sapiens, UniProt Q9Y6F1); assay: Inhibition of PARP3 (unknown origin)
T1 sequence (Q9Y6F1 whole entry): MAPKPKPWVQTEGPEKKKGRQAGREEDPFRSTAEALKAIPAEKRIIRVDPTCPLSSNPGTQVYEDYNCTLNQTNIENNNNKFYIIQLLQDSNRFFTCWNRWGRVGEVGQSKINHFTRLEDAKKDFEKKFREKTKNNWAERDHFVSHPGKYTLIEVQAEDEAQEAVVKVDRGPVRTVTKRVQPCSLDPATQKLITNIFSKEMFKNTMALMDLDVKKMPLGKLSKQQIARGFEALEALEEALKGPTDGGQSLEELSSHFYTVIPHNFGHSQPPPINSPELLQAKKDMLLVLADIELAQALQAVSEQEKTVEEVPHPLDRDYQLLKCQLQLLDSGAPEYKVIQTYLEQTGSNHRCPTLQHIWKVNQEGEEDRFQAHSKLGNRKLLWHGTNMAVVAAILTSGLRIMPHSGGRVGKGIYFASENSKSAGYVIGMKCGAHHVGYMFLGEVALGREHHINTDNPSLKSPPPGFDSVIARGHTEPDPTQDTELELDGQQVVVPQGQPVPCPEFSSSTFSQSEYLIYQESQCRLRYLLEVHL

[3] = target: T2, Poly [ADP-ribose] polymerase tankyrase-1 (Homo sapiens, UniProt O95271); assay: Inhibition of TNKS1 (unknown origin)
T2 sequence (O95271 whole entry): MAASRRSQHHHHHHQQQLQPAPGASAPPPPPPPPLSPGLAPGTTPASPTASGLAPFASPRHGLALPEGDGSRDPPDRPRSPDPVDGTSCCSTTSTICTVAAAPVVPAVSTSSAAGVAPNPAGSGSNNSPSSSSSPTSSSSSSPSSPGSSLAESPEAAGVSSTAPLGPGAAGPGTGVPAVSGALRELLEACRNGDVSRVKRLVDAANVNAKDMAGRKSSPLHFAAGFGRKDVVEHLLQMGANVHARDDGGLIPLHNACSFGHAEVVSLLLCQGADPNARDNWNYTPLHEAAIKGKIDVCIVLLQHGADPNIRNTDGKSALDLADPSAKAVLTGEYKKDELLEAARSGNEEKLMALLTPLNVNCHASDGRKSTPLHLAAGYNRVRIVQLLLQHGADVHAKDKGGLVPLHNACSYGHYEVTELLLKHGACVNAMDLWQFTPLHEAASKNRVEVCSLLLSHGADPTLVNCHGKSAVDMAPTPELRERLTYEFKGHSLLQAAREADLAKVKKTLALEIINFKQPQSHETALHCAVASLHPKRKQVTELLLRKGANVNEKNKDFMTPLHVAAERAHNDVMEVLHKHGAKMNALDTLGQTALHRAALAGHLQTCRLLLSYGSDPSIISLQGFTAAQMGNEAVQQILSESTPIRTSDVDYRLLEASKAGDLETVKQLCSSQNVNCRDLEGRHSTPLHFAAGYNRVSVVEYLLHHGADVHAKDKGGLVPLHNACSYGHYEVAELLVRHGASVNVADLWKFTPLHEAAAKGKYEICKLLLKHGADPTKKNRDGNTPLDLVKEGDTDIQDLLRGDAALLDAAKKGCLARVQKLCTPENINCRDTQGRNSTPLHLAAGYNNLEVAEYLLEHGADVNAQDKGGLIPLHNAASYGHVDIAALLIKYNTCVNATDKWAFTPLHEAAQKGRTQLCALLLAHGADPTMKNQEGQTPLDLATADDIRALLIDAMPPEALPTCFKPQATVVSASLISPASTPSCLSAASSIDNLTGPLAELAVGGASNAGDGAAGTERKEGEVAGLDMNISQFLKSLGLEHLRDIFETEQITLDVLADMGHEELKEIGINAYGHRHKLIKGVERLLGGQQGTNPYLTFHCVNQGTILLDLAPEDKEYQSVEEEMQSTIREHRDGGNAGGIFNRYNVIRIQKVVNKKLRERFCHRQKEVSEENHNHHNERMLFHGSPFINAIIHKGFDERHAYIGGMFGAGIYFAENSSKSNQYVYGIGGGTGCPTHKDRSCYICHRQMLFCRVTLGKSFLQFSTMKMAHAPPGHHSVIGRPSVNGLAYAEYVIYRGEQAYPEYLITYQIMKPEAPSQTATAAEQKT

[4] = target: T3, Protein mono-ADP-ribosyltransferase PARP11 (Homo sapiens) (UniProt Q9NR21); assay: Inhibition of PARP11 (unknown origin) at 10 uM relative to control
T3 sequence (whole entry): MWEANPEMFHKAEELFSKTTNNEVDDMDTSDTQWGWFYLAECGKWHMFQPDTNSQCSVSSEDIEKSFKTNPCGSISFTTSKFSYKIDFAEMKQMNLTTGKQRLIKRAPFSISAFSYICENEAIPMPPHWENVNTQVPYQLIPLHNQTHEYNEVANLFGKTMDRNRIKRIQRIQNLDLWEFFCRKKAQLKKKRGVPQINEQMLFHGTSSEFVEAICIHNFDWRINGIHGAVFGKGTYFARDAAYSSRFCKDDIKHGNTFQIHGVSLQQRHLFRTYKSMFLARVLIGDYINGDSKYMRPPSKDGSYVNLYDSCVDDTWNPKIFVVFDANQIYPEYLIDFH

Homo sapiens = organism: Homo sapiens; assay: Selectivity ratio of IC50 for PARP6 (unknown origin) to IC50 for TNKS2 PARP domain (947 to 1162) (unknown origin)

Chain of Protein mono-ADP-ribosyltransferase PARP6 (Q2NL67 whole entry): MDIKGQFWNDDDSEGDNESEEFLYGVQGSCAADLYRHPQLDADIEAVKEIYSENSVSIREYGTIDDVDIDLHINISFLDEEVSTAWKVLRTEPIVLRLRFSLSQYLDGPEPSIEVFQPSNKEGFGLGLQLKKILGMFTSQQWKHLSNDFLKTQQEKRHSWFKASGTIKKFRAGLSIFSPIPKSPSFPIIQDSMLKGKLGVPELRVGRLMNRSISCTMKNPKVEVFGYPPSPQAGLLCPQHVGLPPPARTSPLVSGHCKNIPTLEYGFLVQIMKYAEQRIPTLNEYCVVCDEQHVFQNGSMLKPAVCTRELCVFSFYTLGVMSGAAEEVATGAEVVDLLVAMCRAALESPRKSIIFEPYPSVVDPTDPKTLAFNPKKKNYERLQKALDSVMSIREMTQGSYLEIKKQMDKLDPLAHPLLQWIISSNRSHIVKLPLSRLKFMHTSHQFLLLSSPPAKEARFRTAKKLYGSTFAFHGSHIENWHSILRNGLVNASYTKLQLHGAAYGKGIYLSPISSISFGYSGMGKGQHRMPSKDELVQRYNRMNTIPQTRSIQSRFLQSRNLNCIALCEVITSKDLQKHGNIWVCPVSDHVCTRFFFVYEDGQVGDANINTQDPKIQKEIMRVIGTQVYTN

How did the IC50 [1] turn out when Cc1cc(=O)[nH]c2cc(-c3ccccc3F)ccc12 was run?
Its IC50 is over 10 µM.

What about the IC50 [2] of the same compound?
The IC50 was over 10 µM.

And the IC50 [3]?
Its IC50 is 0.86 µM.

What about the inhibition [4] of the same compound?
The inhibition was 23%.

And the Ratio IC50 (Homo sapiens)?
Its Ratio IC50 is over 100.
